Data on 17 compounds can be found in US7858630B2, “D3 and 5-HT2A receptor modulators” (Hoffmann-La Roche Inc., priority 2008, dated 2010).

In assay [1] the target is T1, human dopamine D3 receptor (Homo sapiens, UniProt P35462).
T1 construct: expressed in transfected cells; host or cells: HEK-293 EBNA cells, transient transfection; membrane preparation
The assay can be described thus: Radioligand binding ([3H]-spiperone) to membranes of HEK-293 EBNA cells expressing human D3 receptor. The following applies: human D3, 0.5 nM [3H]-spiperone, HEK-293 EBNA membranes, 1 h at RT. The protocol: (§1) The ability of the compounds to bind to the 5-HT2A, D3 and D2 receptors was determined using radioligand binding to cloned receptors selectively expressed in HEK-293 EBNA cells.
(§2) Membrane Preparation for Human D2, Human D3 and Human 5-HT2A Receptors
(§3) HEK-293 EBNA cells were transiently transfected with expression plasmids encoding for the human D2 or D3 dopamine- or for the human 5-HT2A serotonin receptor, respectively. The cells were harvested 48 h post-transfection, washed three times with cold PBS and stored at −80° C. prior to use. The pellet was suspended in cold 50 mM Tris-HCl buffer containing 10 mM EDTA (pH 7.4) and homogenized with a Polytron (Kinematica AG, Basel, Switzerland) for 20-30 sec at 12.000 rpm. After centrifugation at 48.000×g for 30 min at 4° C., the pellet was resuspended in cold 10 mM Tris-HCl buffer containing 0.1 mM EDTA (pH 7.4), homogenized, and centrifuged as above. This pellet was further resuspended in a smaller volume of ice cold 10 mM Tris-HCl buffer containing 0.1 mM EDTA (pH 7.4) and homogenized with a Polytron for 20-30 sec at 12.000 rpm. The protein content of this homogenate was determined with the Bio-Rad (Bradford) Protein Assay (Biorad Laboratories GmbH, München, Germany) according to the instructions of the manufacturer using gamma globulin as the standard. This homogenate was stored at −80° C. in aliquots and thawed immediately prior to use.
(§4) Radioligand Binding Assay Conditions
(§5) Aliquots of membrane preparations were thawed at RT, resupended in assay buffer (D2, D3: 50 mM Tris-HCl, 120 mM NaCl, 5 mM MgCl2, 1 mM EDTA, 5 mM KCl, 1.5 mM CaCl2, pH=7.4; 5-HT2A: 50 mM Tris-HCl, 10 mM MgCl2, 1 mM EGTA, pH=7.4), homogenized with a Polytron for 20-30 sec at 12.000 rpm and adjusted to a final concentration of approximately 7.5 μg protein/well (D2, D3) and 15 μg protein/well (5-HT2A), respectively.
(§6) The binding affinity (Ki) of the compounds was determined using radioligand binding. Membranes were incubated in a total volume of 200 μl with a fixed concentration of radioligand (final concentration approximately 0.7 nM [^3H]-spiperone for D2, 0.5 nM [^3H]-spiperone for D3, and 1.1 nM [^3H]-ketanserin for 5-HT2A) and ten concentrations of test compound in ranging between 10 μM-0.1 nM for 1 h at RT. At the end of the incubation, the reaction mixtures were filtered on to unifilter 96-well white microplates with bonded GF/C filters (Packard BioScience, Zurich, Switzerland; preincubated for 1 h in 0.1% polyethylenimine (PEI) in assay buffer) with a Filtermate 196 harvester (Packard BioScience) and washed 3 times with cold assay buffer. The nonspecific binding was determined with equally composed reaction mixtures in the presence of 10 μM unlabelled spiperone. Per well 45 μl of Microscint 40 (Perkin Elmer, Schwerzenbach, Switzerland) was added, plates for sealed, shaken for 20 min and counted for 3 min on a Topcount Microplate Scintillation Counter (Canberra Packard SA, Zurich, Switzerland) with quenching correction.
(§7) The CPM value for each duplicate of a concentration of competing compound was averaged (y1), then the % specific binding was calculated according to the equation (((y1−non-specific)/(total binding-non-specific))×100). Graphs were plotted with the % specific binding using XLfit, a curve fitting program that iteratively plots the data using Levenburg Marquardt algorithm. The single site competition analysis equation used was y=A+((B−A)/(1+((x/C)^D))), where y is the % specific binding, A is the minimum y, B is the maximum y, C is the IC50, x is the log10 of the concentration of the competing compound and D is the slope of the curve (the Hill Coefficient). From these curves the IC50 (inhibition concentration at which 50% specific binding of the radioligand was displaced) and Hill coefficient were determined. […]

The target in assay [2] is T2, human dopamine D2 receptor (Homo sapiens, UniProt P14416).
T2 construct: expressed in transfected cells; host or cells: HEK-293 EBNA cells, transient transfection; membrane preparation
T2 sequence (P14416 whole entry): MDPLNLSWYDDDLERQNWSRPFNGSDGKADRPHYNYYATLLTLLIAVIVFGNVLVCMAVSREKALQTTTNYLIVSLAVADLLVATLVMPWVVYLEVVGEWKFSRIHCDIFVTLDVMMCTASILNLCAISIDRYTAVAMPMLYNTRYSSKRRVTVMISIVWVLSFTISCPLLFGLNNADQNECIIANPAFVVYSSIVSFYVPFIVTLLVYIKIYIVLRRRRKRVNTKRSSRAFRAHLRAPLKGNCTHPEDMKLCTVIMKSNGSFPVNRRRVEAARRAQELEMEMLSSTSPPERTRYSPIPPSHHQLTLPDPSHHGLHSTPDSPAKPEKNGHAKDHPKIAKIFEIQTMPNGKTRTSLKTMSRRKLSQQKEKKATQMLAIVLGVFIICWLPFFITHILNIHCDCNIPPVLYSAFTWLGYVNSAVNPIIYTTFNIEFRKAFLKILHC
As to the kind of experiment: Radioligand binding ([3H]-spiperone) to membranes of HEK-293 EBNA cells expressing human D2 receptor. The following applies: human D2, 0.7 nM [3H]-spiperone, HEK-293 EBNA membranes, 1 h at RT. The method, then: as §1, §2, §3, §4, §5, §6, §7

Assay [3] deals with T3, human serotonin 5-HT2A receptor (Homo sapiens, UniProt P28223).
T3 construct: expressed in transfected cells; host or cells: HEK-293 EBNA cells, transient transfection; membrane preparation
T3 sequence (P28223 whole entry): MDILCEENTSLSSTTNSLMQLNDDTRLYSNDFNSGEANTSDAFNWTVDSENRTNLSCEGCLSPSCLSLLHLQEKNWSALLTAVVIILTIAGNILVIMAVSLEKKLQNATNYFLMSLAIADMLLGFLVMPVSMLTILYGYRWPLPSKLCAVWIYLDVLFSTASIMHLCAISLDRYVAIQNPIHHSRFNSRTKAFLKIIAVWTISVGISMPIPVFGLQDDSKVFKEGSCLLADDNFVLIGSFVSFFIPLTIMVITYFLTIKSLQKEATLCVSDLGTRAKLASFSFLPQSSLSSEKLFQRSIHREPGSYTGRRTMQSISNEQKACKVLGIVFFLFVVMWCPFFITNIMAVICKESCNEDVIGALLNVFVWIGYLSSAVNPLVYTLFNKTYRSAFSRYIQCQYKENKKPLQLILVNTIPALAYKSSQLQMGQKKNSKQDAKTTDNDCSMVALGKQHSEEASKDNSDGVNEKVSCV
As to the kind of experiment: Radioligand binding ([3H]-ketanserin) to membranes of HEK-293 EBNA cells expressing human 5-HT2A receptor. The following applies: 1.1 nM [3H]-ketanserin, HEK-293 EBNA membranes, 1 h at RT. The protocol:
as §1, §2, §3, §4, §5, §6, §7

T1 sequence (P35462 whole entry): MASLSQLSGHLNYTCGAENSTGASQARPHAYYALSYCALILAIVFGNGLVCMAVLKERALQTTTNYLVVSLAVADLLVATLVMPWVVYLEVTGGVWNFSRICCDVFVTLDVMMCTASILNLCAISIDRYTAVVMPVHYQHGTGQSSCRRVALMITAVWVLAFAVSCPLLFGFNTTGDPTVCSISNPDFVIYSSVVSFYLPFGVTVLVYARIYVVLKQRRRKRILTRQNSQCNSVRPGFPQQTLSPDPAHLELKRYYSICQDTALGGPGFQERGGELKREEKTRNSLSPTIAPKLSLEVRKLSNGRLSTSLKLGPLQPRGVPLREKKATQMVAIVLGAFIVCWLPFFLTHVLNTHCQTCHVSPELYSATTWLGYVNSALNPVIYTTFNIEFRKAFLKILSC

Consider `COC(CCC(=O)N[C@H]1CC[C@H](CCN2CCN(c3noc4ccc(F)cc34)CC2)CC1)OC` [Example 28, N-trans-(4-{2-[4-(5-Fluoro-benzo[d]isoxazol-3-yl)-piperazin-1-yl]-ethyl}-cyclohexyl)-4,4-dimethoxy-butyramide], for which the inhibitory constant (Ki) in assay [1] was 0.00878 µM; in assay [2], 0.918 µM; in assay [3], 0.0228 µM.

As to `COC[C@H]1C[C@H](CC(=O)N[C@H]2CC[C@H](CCN3CCN(c4noc5cc(F)c(Cl)cc45)CC3)CC2)C1` [Example 80, N-trans-(4-{2-[4-(5-Chloro-6-fluoro-benzo[d]isoxazol-3-yl)-piperazin-1-yl]-ethyl}-cyclohexyl)-2-trans-(3-methoxymethyl-cyclobutyl)-acetamide], the results for the Ki in assay [1], in assay [2] and in assay [3] were 0.00642 µM, 11.7 µM and 0.00298 µM, respectively.

As to `Cc1cc2c(N3CCN(CC[C@H]4CC[C@H](NC(=O)C[C@H](O)C(F)(F)F)CC4)CC3)noc2cc1F` [Example 116, (S)-4,4,4-Trifluoro-N-trans-(4-{2-[4-(6-fluoro-5-methyl-benzo[d]isoxazol-3-yl)-piperazin-1-yl]-ethyl}-cyclohexyl)-3-hydroxy-butyramide], the inhibition constant Ki in assay [1] worked out at 0.02 µM; in assay [2], 3.28 µM; in assay [3] it was 0.033 µM.

Consider `CCOCC(=O)N[C@H]1CC[C@H](CCN2CCN(c3noc4cc(F)c(C)cc34)CC2)CC1` [Example 110, 2-Ethoxy-N-trans-(4-{2-[4-(6-fluoro-5-methyl-benzo[d]isoxazol-3-yl)-piperazin-1-yl]-ethyl}-cyclohexyl)-acetamide], for which the Ki in assay [1] was 0.0316 µM; in assay [2], 1.55 µM; in assay [3] it was 0.0101 µM.

Regarding `COC[C@H]1C[C@H](CC(=O)N[C@H]2CC[C@H](CCN3CCN(c4noc5cc(Cl)ccc45)CC3)CC2)C1` [Example 48, N-trans-(4-{2-[4-(6-Chloro-benzo[d]isoxazol-3-yl)-piperazin-1-yl]-ethyl}-cyclohexyl)-2-trans-(3-methoxymethyl-cyclobutyl)-acetamide], the Ki in assay [1] was 0.00996 µM; in assay [2], 0.706 µM; in assay [3], 0.00377 µM.

With `O=C(N[C@H]1CC[C@H](CCN2CCN(c3noc4cc(F)c(Cl)cc34)CC2)CC1)C1CC(Cl)C1` (stereo partly drawn) [Example 83, 3-Chloro-cyclobutanecarboxylic acid N-trans-(4-{2-[4-(5-chloro-6-fluoro-benzo[d]isoxazol-3-yl)-piperazin-1-yl]-ethyl}-cyclohexyl)-amide], the inhibitory constant (Ki) in assay [1] was 0.00585 µM; in assay [2], 11.1 µM; in assay [3], 0.00855 µM.

As for `COCCC(=O)N[C@H]1CC[C@H](CCN2CCN(c3noc4cc(C)ccc34)CC2)CC1` [Example 98, 3-Methoxy-N-trans-(4-{2-[4-(6-methyl-benzo[d]isoxazol-3-yl)-piperazin-1-yl]-ethyl}-cyclohexyl)-propionamide], the Ki was 0.00742 µM in assay [1], 0.222 µM in assay [2] and 0.00521 µM in assay [3].

For the compound `COCCC(=O)N[C@H]1CC[C@H](CCN2CCN(c3noc4cc(Cl)ccc34)CC2)CC1` [Example 29, N-trans-(4-{2-[4-(6-Chloro-benzo[d]isoxazol-3-yl)-piperazin-1-yl]-ethyl}-cyclohexyl)-3-methoxy-propionamide], the Ki in assay [1] turned out to be 0.00868 µM; in assay [2] it was 0.49 µM; in assay [3] it was 0.00859 µM.

Regarding `COCC(=O)N[C@H]1CC[C@H](CCN2CCN(c3noc4cc(F)c(F)cc34)CC2)CC1` [Example 60, N-trans-(4-{2-[4-(5,6-Difluoro-benzo[d]isoxazol-3-yl)-piperazin-1-yl]-ethyl}-cyclohexyl)-2-methoxy-acetamide], the results for the Ki in assay [1], in assay [2] and in assay [3] were 0.0204 µM, 0.878 µM and 0.0095 µM, respectively.

Consider `O=C(N[C@H]1CC[C@H](CCN2CCN(c3noc4cc(Cl)c(Cl)cc34)CC2)CC1)C1CCOCC1` [Example 95, Tetrahydro-pyran-4-carboxylic acid N-trans-(4-{2-[4-(5,6-dichloro-benzo[d]isoxazol-3-yl)-piperazin-1-yl]-ethyl}-cyclohexyl)-amide], for which the Ki in assay [1] came out at 0.117 µM; in assay [2], 7.95 µM; in assay [3], 0.0499 µM.

Take `O=C(CC1OCCCO1)N[C@H]1CC[C@H](CCN2CCN(c3noc4cc(F)c(F)cc34)CC2)CC1` [Example 69, N-trans-(4-{2-[4-(5,6-Difluoro-benzo[d]isoxazol-3-yl)-piperazin-1-yl]-ethyl}-cyclohexyl)-2-[1,3]dioxan-2-yl-acetamide]: the figures for the Ki in assay [1], in assay [2] and in assay [3] were 0.0131 µM, 0.862 µM and 0.00633 µM, respectively.

Consider `Cc1ccc2c(N3CCN(CC[C@H]4CC[C@H](NC(=O)CC5COCCO5)CC4)CC3)noc2c1` (stereo partly drawn) [Example 102, 2-[1,4]Dioxan-2-yl-N-trans-(4-{2-[4-(6-methyl-benzo[d]isoxazol-3-yl)-piperazin-1-yl]-ethyl}-cyclohexyl)-acetamide], for which the inhibition constant Ki in assay [1] is 0.0139 µM; in assay [2], 0.333 µM; in assay [3], 0.00265 µM.

On to `CO[C@H]1CC[C@H](CC(=O)N[C@H]2CC[C@H](CCN3CCN(c4noc5cc(F)c(Cl)cc45)CC3)CC2)CC1` [Example 88, N-trans-(4-{2-[4-(5-Chloro-6-fluoro-benzo[d]isoxazol-3-yl)-piperazin-1-yl]-ethyl}-cyclohexyl)-2-trans-(4-methoxy-cyclohexyl)-acetamide], for which the inhibition constant (Ki) in assay [1] came to 0.0311 µM; in assay [2], 11.2 µM; in assay [3], 0.0167 µM.

In the case of `CCOCC(=O)N[C@H]1CC[C@H](CCN2CCN(c3noc4ccc(F)cc34)CC2)CC1` [Example 12, 2-Ethoxy-N-trans-(4-{2-[4-(5-fluoro-benzo[d]isoxazol-3-yl)-piperazin-1-yl]-ethyl}-cyclohexyl)-acetamide], the Ki was 0.0156 µM in assay [1], 1.39 µM in assay [2] and 0.0235 µM in assay [3].

With `COC1(CC(=O)N[C@H]2CC[C@H](CCN3CCN(c4noc5cc(F)c(F)cc45)CC3)CC2)CCOCC1` [Example 62, N-trans-(4-{2-[4-(5,6-Difluoro-benzo[d]isoxazol-3-yl)-piperazin-1-yl]-ethyl}-cyclohexyl)-2-(4-methoxy-tetrahydro-pyran-4-yl)-acetamide], the Ki in assay [1] is 0.0134 µM; in assay [2], 0.352 µM; in assay [3], 0.00992 µM.

In the case of `CC(=O)N[C@H]1CC[C@H](CCN2CCN(c3noc4cc(F)c(Cl)cc34)CC2)CC1` [Example 73, N-trans-(4-{2-[4-(5-Chloro-6-fluoro-benzo[d]isoxazol-3-yl)-piperazin-1-yl]-ethyl}-cyclohexyl)-acetamide], the inhibitory constant (Ki) in assay [1] came to 0.00974 µM; in assay [2], 0.559 µM; in assay [3] it was 0.0168 µM.

As to `COCCC(=O)N[C@H]1CC[C@H](CCN2CCN(c3noc4cc(F)c(F)cc34)CC2)CC1` [Example 57, N-trans-(4-{2-[4-(5,6-Difluoro-benzo[d]isoxazol-3-yl)-piperazin-1-yl]-ethyl}-cyclohexyl)-3-methoxy-propionamide], the Ki in assay [1] is 0.00618 µM; in assay [2], 0.396 µM; in assay [3], 0.0131 µM.
